Values of other authors, collected in PMC11944884, “Bioactive Secondary Metabolites of Two Chinese Edible Boletes, Phlebopus portentosus and Butyriboletus roseoflavus” (Molecules, 2025).

Test system: head domain of HA
Settings: molecular docking, ref [56]; cited from earlier work

CC[C@H](CC[C@@H](C)[C@H]1CC[C@H]2[C@@H]3CC=C4C[C@@H](O)CC[C@]4(C)[C@H]3CC[C@]12C)C(C)C [β-sitosterol]
binding affinity to the head domain of HA: highest binding affinity
